Reference: patent publication US4318826A, “Carbonylation catalysts” (Exxon Research & Engineering Co., priority 1980, dated 1982)
Where two headings read alike, the source gives them in different places.

Tests used:
[1] = Example 8 / Table II: effect of catalyst on carbonylation of methanol to methyl acetate; conditions: CH3 I 8.0 mmole, 175° C., 1000 psi; for % Selectivity: additional product dimethyl ether
[2] = Example 7: effect of cocatalyst on production of methyl acetate from CH3 OH; conditions: 175° C.
[3] = Table III: effect of cocatalyst on carbonylation of methanol to methyl acetate
[4] = Example 11: hydroformylation of propylene; conditions: 133 °C.
Experimental: Reaction Conditions: 1000 psig Total pressure, CO/H2 (50/50) mixture), 60 ml benzene as solvent, 0.30-0.45 moles propylene, 0.5 mmoles catalyst (based on Rh).

[5] = Experimental: This conversion is run at elevated pressures, preferably from 1,500 to 3,000 psi. Reaction temperatures will range from 50° C. to 200° C., with a range of 100° C. to 150° C. preferred. Ratio of H2 to CO used will vary with reaction conditions; preferably a 1 to 1 ratio is maintained. The catalyst concentration will range from 0.01 to 20% based on the weight feed, with 0.05 to 10 % preferred.
30 ml. of hexene-1, 20 ml. of benzene, and 0.3 gm. […] The bomb was heated to 140° C. and held until the reaction was complete.

[6] = catalyst 1.0 mmole, 18-21 hours
[7] = cocatalyst 4.0 mmole, 4000 psi CO, 4 hours
[8] = cocatalyst 8.0 mmole, 1000 psi CO, CH3 I 18 hours, CH3 CH2 I 19 hours, C6 H5 I 90 hours
[9] = cocatalyst 8.0 mmole, 175° C., 1000 psi, CH3 I 18 hr, CH3 CH2 I 19 hr, C6 H5 I 90 hr
[10] = cocatalyst 8.0 mmole, 3.25 hr, 175° C., 4000 psi CO
[11] = cocatalyst 16.0 mmole, 4.25 hr, 175° C., 4000 psi CO
[12] = catalyst 2.0 mmole, 16-19 hours (Co(C5 H7 O2)3: 67)

Compound: [C-]#[O+].[C-]#[O+].[C-]#[O+].[C-]#[O+].[C-]#[O+].[C-]#[O+].[C-]#[O+].[C-]#[O+].[Co].[Co] [Co2 (CO)8]
- % Conversion [1, 6]: 3.5%
- % Selectivity [1, 6]: 6.4%

Compound: I [HI, hydrogen iodide]
- methyl acetate produced (head is a drawing) [2, 7]: 6.6 mL
- % Conversion to Methyl Acetate [3]: 8
- % Selectivity to Methyl Acetate [3]: 47

Compound: Ic1ccccc1 [C6 H5 I]
- methyl acetate produced (head is a drawing) [2, 8]: 22.3 mL
- % Conversion to Methyl Acetate [3, 9]: 25%
- % Selectivity to Methyl Acetate [3, 9]: 52%

Compound: CCI [CH3 CH2 I]
- methyl acetate produced (head is a drawing) [2, 8]: 17.5 mL
- % Conversion to Methyl Acetate [3, 9]: 20%
- % Selectivity to Methyl Acetate [3, 9]: 85%

Compound: CI [CH3 I, methyl iodide]
- methyl acetate produced (head is a drawing) [2, 8]: 21.4 mL
- methyl acetate produced (head is a drawing) ([2]; cocatalyst 8.0 mmole, 4000 psi CO, 4 hours): 29.6 mL
- methyl acetate produced (head is a drawing) ([2]; cocatalyst 16.0 mmole, 4000 psi CO, 4 hours): 19.8 mL
- % Conversion to Methyl Acetate [3, 9]: 24%
- % Selectivity to Methyl Acetate [3, 9]: 85%
- % Conversion to Methyl Acetate [3, 10]: 29%
- % Selectivity to Methyl Acetate [3, 10]: 97%
- % Conversion to Methyl Acetate [3, 11]: 25%
- % Selectivity to Methyl Acetate [3, 11]: 74%

Compound: O=[C]=[Rh]([Cl])([PH](c1ccccc1)(c1ccccc1)c1ccccc1)[PH](c1ccccc1)(c1ccccc1)c1ccccc1 [((C6 H5)3 P)2 Rh(CO)Cl]
- (%) n-C4 H8 O (percent straight chain isomer) ([4]; 1000 psig CO/H2 50/50): 56%
- k (pseudo 1st order reaction rate constant) ([4]; 1000 psig CO/H2 50/50): 0.0744 min⁻¹
- t1/2 ([4]; t1/2 = ln 2/k): 9.32 min

Compound: CBr [CH3 Br]
- promotional effect as cocatalyst [3]: inventive

Compound: II [Example I2, iodine]
- methyl acetate produced (head is a drawing) ([2]; cocatalyst 2.0 mmole, 4000 psi CO, 4 hours): 5.2 mL

Compound: CC(=O)[CH-]C(C)=O.CC(=O)[CH-]C(C)=O.CC(=O)[CH-]C(C)=O.[Co+3] [Co(C5 H7 O2)3]
- % Conversion [1, 12]: 16%
- % Selectivity [1, 12]: 23%

Compound: [I-].[Li+] [LiI]
- methyl acetate produced (head is a drawing) [2, 7]: 1 mL
- % Conversion to Methyl Acetate [3]: 0.6
- % Selectivity to Methyl Acetate [3]: 100

Compound: tetrakis tetrahydrofuran adduct of a magnesium-dicobalt hexacarbonyl bismethyldiphenylphosphine complex [[C4 H8 O]4 Mg[Co(CO)3 PCH3 (C6 H5)2]2]
- hexene-1 converted to C7 aldehydes and C7 alcohols ([5]; 1500 psi, H2 :CO 1:1, 140° C.): 99%
- reacted product that was an aldehyde ([5]; 1500 psi, H2 :CO 1:1, 140° C.): 87%
- conversion of 1-hexene to heptaldehydes ([5]; description): > 99%
- selectivity in conversion of 1-hexene to heptaldehydes ([5]; description): 87%
